Biological target: T1, NMDA receptor (Rattus norvegicus, UniProt P35439+Q00960)
T1 construct: Membranes were prepared by homogenization of the whole brain minus cerebellum and medulla oblongata; from tissue; host or cells: rat whole brain minus cerebellum and medulla oblongata (membranes)
Test: 3H-Ro 25-6981 binding (displacement) on rat brain membranes
Set-up: species or system Füllinsdorf albino rats
Conditions: not given
Procedure: 3H-Ro 25-6981 binding (Ro 25-6981 is [R-(R*,S*)]-a-(4-Hydroxy-phenyl)-b-methyl-4-(phenyl-methyl)-1-piperidine propanol)
Male Füllinsdorf albino rats weighing between 150-200 g were used. Membranes were prepared by homogenization of the whole brain minus cerebellum and medulla oblongata with a Polytron (10.000 rpm, 30 seconds), in 25 volumes of a cold Tris-HCl 50 mM, EDTA 10 mM, pH 7.1 buffer. The homogenate was centrifuged at 48.000 g for 10 minutes at 4°C. The pellet was resuspended using the Polytron in the same volume of buffer and the homogenate was incubated at 37°C for 10 minutes. After centrifugation the pellet was homogenized in the same buffer and frozen at -80°C for at least 16 hours but not more than 10 days. For the binding assay the homogenate was thawed at 37°C, centrifuged and the pellet was washed three times as above in a Tris-HCl 5 mM, pH 7.4 cold buffer. The final pellet was resuspended in the same buffer and used at a final concentration of […] of protein/ml.
3H-Ro 25-6981 binding experiments were performed using a Tris-HCl 50 mM, pH 7.4 buffer. For displacement experiments 5 nM of 3H-Ro 25-6981 were used and non specific binding was measured using 10 mM of tetrahydroisoquinoline and usually it accounts for 10% of the total. The incubation time was 2 hours at 4°C and the assay was stopped by filtration on Whatmann GF/B glass fiber filters (Unifilter-96, Packard, Zürich, Switzerland). The filters were washed 5 times with cold buffer. The radioactivity on the filter was counted on a Packard Top-count microplate scintillation counter after addition of […] of microscint 40 (Canberra Packard S.A., Zürich, Switzerland).
The effects of compounds were measured using a minimum of 8 concentrations and repeated at least once. The pooled normalized values were analyzed using a non-linear regression calculation program which provide IC50 with their relative upper and lower 95% confidence limits (RS1, BBN, USA).

T1 sequence (Q00960 27-1482, other chains not shown): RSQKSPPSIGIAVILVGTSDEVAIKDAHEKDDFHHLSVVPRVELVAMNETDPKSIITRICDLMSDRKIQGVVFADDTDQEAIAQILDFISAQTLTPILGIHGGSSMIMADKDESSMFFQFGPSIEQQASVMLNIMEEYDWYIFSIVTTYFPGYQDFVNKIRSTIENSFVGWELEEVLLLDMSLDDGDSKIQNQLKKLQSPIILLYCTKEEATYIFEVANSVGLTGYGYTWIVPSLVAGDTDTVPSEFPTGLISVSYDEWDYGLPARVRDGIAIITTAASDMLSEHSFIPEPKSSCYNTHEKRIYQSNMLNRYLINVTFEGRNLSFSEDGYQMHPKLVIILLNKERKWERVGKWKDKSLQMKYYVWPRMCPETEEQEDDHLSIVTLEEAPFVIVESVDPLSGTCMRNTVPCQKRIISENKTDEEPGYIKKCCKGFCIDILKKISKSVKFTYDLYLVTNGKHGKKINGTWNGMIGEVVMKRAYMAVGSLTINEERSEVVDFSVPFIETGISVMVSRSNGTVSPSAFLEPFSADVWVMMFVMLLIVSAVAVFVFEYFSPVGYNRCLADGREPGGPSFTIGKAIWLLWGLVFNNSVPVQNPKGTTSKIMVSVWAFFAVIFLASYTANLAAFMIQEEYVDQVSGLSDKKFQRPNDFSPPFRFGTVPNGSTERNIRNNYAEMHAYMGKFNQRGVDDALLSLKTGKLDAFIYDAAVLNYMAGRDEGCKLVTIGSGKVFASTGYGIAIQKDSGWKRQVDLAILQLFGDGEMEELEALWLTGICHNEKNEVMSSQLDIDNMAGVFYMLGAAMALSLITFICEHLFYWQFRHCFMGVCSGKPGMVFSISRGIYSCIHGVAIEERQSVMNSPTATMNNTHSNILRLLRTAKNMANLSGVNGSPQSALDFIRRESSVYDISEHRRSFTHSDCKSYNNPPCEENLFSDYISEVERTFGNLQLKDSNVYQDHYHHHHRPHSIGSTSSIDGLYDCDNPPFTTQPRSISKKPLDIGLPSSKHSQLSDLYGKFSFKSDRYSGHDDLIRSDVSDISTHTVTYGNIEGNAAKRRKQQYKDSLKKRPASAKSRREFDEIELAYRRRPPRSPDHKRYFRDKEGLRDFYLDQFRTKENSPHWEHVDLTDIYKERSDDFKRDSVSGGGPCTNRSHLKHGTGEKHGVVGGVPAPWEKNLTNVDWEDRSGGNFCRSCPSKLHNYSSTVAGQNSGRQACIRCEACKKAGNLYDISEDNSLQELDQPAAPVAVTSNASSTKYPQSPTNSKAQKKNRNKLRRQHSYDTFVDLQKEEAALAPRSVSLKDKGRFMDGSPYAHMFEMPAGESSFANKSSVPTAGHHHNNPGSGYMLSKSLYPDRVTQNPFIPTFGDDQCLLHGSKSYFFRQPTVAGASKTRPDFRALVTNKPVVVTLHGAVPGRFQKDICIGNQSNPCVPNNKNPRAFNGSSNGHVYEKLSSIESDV

Row | SMILES | IC50 [nM]
1 | Oc1ccc([C@H]2OC[C@H](NCCCc3ccccc3)CO2)cc1 [Example 85, trans-4-[5-(3-Phenyl-propylamino)-[1,3]dioxan-2-yl]-phenol 1:1 but-2-enedioic acid] | 22
2 | Oc1ccc(C2(O)CCC(NCCCc3ccccc3)CC2)cc1 (stereo not drawn) [Example 71c, cis-4-[1-Hydroxy-4-(3-phenyl-propylamino)-cyclohexyl]-phenol] | 25

Same assay, conditions: displacement of 5 nM 3H-Ro 25-6981; rat whole brain membranes (minus cerebellum and medulla oblongata); 2 hours at 4°C; read-out: IC50

Row | SMILES | IC50 [nM]
3 | CN(CCCc1ccccc1)C1CCN(c2ccc(O)cc2)CC1 [Example 75, 4-[4-[Methyl-(3-phenyl-propyl)-amino]-piperidin-1-yl]-phenol] | 7
4 | OCC(CN[C@H]1CC[C@H](c2ccc(O)cc2)CC1)Cc1ccccc1 (mixture of isomers) [Example 70b, (RS)-4-[trans-4-(2-Hydroxymethyl-3-phenyl-propylamino)-cyclohexyl]-phenol] | 100
5 | C[C@@H]1CN(c2ccc(O)cc2)CC[C@@H]1NCCCc1ccccc1 (racemic) [Example 81g, (3RS,4SR)-4-[3-Methyl-4-(3-phenyl-propylamino)-piperidin-1-yl]-phenol] | 27
6 | C[C@@H]1C[C@H](c2ccc(O)cc2)CC[C@H]1NCCCc1ccccc1 (racemic) [Example 74c, (1RS,3RS,4RS)-4-[3-Methyl-4-(3-phenyl-propylamino)-cyclohexyl]-phenol] | 10
7 | Oc1ccc(N2CCC(NCCCc3ccccc3)CC2)cc1 [Example 77, 4-[4-(3-Phenyl-propylamino)-piperidin-1-yl]-phenol] | 7
8 | Oc1ccc(N2CCC(NCCCCc3ccccc3)CC2)cc1 [Example 83c, 4-[4-(4-Phenyl-butylamino)-piperidin-1-yl]-phenol] | 60
9 | C[C@@H]1C[C@H](c2ccc(O)cc2)CC[C@H]1N(C)CCCc1ccccc1 (racemic) [Example 73b, (1RS,3RS,4RS)-4-[3-Methyl-4-[methyl-(3-phenyl-propyl)-amino]-cyclohexyl]-phenol] | 10
10 | Oc1ccc([C@H]2CC[C@H](NCCC(O)c3ccccc3)CC2)cc1 (mixture of isomers) [Example 64b, (RS)-4-[trans-4-(3-Hydroxy-3-phenyl-propylamino)-cyclohexyl]-phenol] | 60
11 | Oc1ccc([C@H]2CC[C@H](NCC(O)Cc3ccccc3)CC2)cc1 (mixture of isomers) [Example 50, (RS)-4-[trans-4-(2-Hydroxy-3-phenyl-propylamino)-cyclohexyl]-phenol] | 80
12 | Oc1ccc([C@H]2CC[C@H](NCCCCc3ccccc3)CC2)cc1 [Example 24, trans-4-[4-(4-Phenyl-butylamino)-cyclohexyl]-phenol] | 70
13 | OCC(CCc1ccccc1)N[C@H]1CC[C@H](c2ccc(O)cc2)CC1 (mixture of isomers) [Example 66c, (RS)-4-[trans-4-(1-Hydroxymethyl-3-phenyl-propylamino)-cyclohexyl]-phenol] | 20

Results, then the molecule that gave them:

Row | IC50 [nM] | SMILES
14 | 8 | Cc1ccc(OCCN(C)[C@H]2CC[C@H](c3ccc(O)cc3)CC2)cc1 [Example 44b, trans-4-[4-[Methyl-(2-p-tolyloxy-ethyl)-amino]-cyclohexyl]-phenol]
15 | 40 | CCN(CCCc1ccccc1)[C@H]1CC[C@H](c2ccc(O)cc2)CC1 [Example 40c, trans-4-{4-[Ethyl-(3-phenyl-propyl)-amino]-cyclohexyl}-phenol]
16 | 40 | CC(CCc1ccccc1)N[C@H]1CC[C@H](c2ccc(O)cc2)CC1 (mixture of isomers) [Example 58, 4-[trans-4-[(RS)-1-Methyl-3-phenyl-propylamino)-cyclohexyl]-phenol]
17 | 100 | CN(CCC(CO)c1ccccc1)[C@H]1CC[C@H](c2ccc(O)cc2)CC1 (mixture of isomers) [Example 67b, (RS)-4-[trans-4-[(4-Hydroxy-3-phenyl-butyl)-methyl-amino]-cyclohexyl]-phenol]
18 | 6 | Oc1ccc([C@H]2CC[C@H](NCCCc3ccc(F)cc3)CC2)cc1 [Example 62b, trans-4-[4-[3-(4-Fluoro-phenyl)-propylamino]-cyclohexyl]-phenol]
19 | 10 | CN(CCOc1ccc(F)cc1)[C@H]1CC[C@H](c2ccc(O)cc2)CC1 [Example 46b, trans-4-(4-{[2-(4-Fluoro-phenoxy)-ethyl]-methyl-amino}-cyclohexyl)-phenol]
20 | 20 | CN(CCOc1ccccc1)[C@H]1CC[C@H](c2ccc(O)cc2)CC1 [Example 41b, trans-4-{4-[Methyl-(2-phenoxy-ethyl)-amino]-cyclohexyl}-phenol]
21 | 30 | Cc1cccc(OCCN(C)[C@H]2CC[C@H](c3ccc(O)cc3)CC2)c1 [Example 47b, trans-4-{4-[Methyl-(2-m-tolyloxy-ethyl)-amino]-cyclohexyl}-phenol]
22 | 130 | Cc1ccc(OCCN(C)[C@H]2CC[C@@H](c3ccc(O)cc3)CC2)cc1 [Example 45b, cis-4-[4-[Methyl-(2-p-tolyloxy-ethyl)-amino]-cyclohexyl]-phenol]
23 | 10 | CN(C(CO)CCc1ccccc1)[C@H]1CC[C@H](c2ccc(O)cc2)CC1 (mixture of isomers) [Example 65b, (RS)-4-[trans-4-[(1-Hydroxymethyl-3-phenyl-propyl)-methyl-amino]-cyclohexyl]-phenol]
24 | 11 | CN(CCCc1ccccc1)[C@H]1CC[C@H](c2ccc(NS(C)(=O)=O)cc2)CC1 [Example 56, trans-N-(4-{4-[Methyl-(3-phenyl-propyl)-amino]-cyclohexyl}-phenyl)-methanesulfonamide]
25 | 20 | Oc1ccc([C@H]2CC[C@H](NCCCc3ccccc3)CC2)cc1 [Example 22b, trans-4-[4-(3-Phenyl-propylamino)-cyclohexyl]-phenol]
26 | 10 | CC(CCc1ccccc1)N(C)[C@H]1CC[C@H](c2ccc(O)cc2)CC1 (mixture of isomers) [Example 57b, (RS)-4-[trans-4-[Methyl-(1-methyl-3-phenyl-propyl)-amino]-cyclohexyl]-phenol]
27 | 9 | CN(CCCc1ccccc1)[C@H]1CC[C@H](c2ccc(O)cc2)CC1 [Example 39b, trans-4-{4-[Methyl-(3-phenyl-propyl)-amino]-cyclohexyl}-phenol]
28 | 40 | Cc1ccccc1OCCN(C)[C@H]1CC[C@H](c2ccc(O)cc2)CC1 [Example 48c, trans-4-{4-[Methyl-(2-o-tolyloxy-ethyl)-amino]-cyclohexyl}-phenol]
29 | 4 | CN(CCCc1ccc(F)cc1)[C@H]1CC[C@H](c2ccc(O)cc2)CC1 [Example 61b, trans-4-(4-{[3-(4-Fluoro-phenyl)-propyl]-methyl-amino}-cyclohexyl)-phenol]
30 | 20 | Oc1ccc([C@H]2CC[C@H](NCCOc3ccccc3)CC2)cc1 [Example 43b, trans-4-[4-(2-Phenoxy-ethylamino)-cyclohexyl]-phenol]
31 | 20 | CN(CCC(O)c1ccccc1)[C@H]1CC[C@H](c2ccc(O)cc2)CC1 (mixture of isomers) [Example 63b, (RS)-4-[trans-4-[(3-Hydroxy-3-phenyl-propyl)-methyl-amino]-cyclohexyl]-phenol]
32 | 7 | Cc1ccc(CCCN[C@H]2CC[C@H](c3ccc(O)cc3)CC2)cc1 [Example 60b, trans-4-[4-(3-p-Tolyl-propylamino)-cyclohexyl]-phenol]

From patent EP0982026A2, “Use of aryl-cyclohexylamine derivatives in the manufacture of NMDA receptor blockers” (priority 1998, dated 2000)
